Key:
[1] = xn = mol fraction of the nth substance listed; conditions: 101.3 kPa, Liquid
[2] = refractive index (Na D-line) (dimensionless); xn = mol fraction of the nth substance listed; conditions: 303.15 K, 101.3 kPa, Liquid
[3] = refractive index (Na D-line) (dimensionless); conditions: 303.15 K; 101.33 kPa; Liquid
[4] = 101.3 kPa, Liquid

C1COCCO1 [1,4-dioxane] + O
mass density [kg/m3], [1]
Conditions | x2 = 0 | x2 = 0.3523 | x2 = 0.5503 | x2 = 0.6772 | x2 = 0.7654 | x2 = 0.8304 | x2 = 0.8801 | x2 = 0.9195 | x2 = 0.9514 | x2 = 0.9778
303.15 K | 1024.63 | 1029.1 | 1032.4 | 1033.83 | 1033.22 | 1030.5 | 1025.6 | 1019.51 | 1012.1 | 1004.1
313.15 K | 1013.3 | 1018.5 | 1022.6 | 1024.7 | 1024.7 | 1022.7 | 1018.7 | 1013.4 | 1006.9 | 999.8
323.15 K | 1001.9 | 1007.8 | 1012.5 | 1015.2 | 1015.9 | 1014.6 | 1011.4 | 1006.9 | 1001.3 | 994.9

[2]
Conditions | refractive index
x2 = 0 | 1.4181
x2 = 0.3523 | 1.4116
x2 = 0.5503 | 1.4046
x2 = 0.6772 | 1.3972
x2 = 0.7654 | 1.391
x2 = 0.8304 | 1.3865
x2 = 0.8801 | 1.3798
x2 = 0.9195 | 1.3698
x2 = 0.9514 | 1.3517
x2 = 0.9778 | 1.3417

C1CCOC1 [tetrahydrofuran]
Conditions | refractive index
[3] | 1.4048

[4]
Conditions | mass density [kg/m3] | viscosity [mPa·s]
303.15 K | 876.6 | 0.463
313.15 K | 865.65 | 0.4
323.15 K | 854.3 | 0.372
